{"source": "patent US8877949B2", "about": "“Furo[3,2-g]chromene compounds and uses thereof” (Shenyang Pharmaceutical University, priority 2010, dated 2014)", "key": {"uteri": {"test_system": "uteri", "experiment": "6 weeks spayed rats, protection of bone and heart: uterine weight", "assay_type": "in vivo, rat", "settings": "spayed female Sprague-Dawley CD rats, 6 weeks treatment; n = 2", "procedure": "One day after a Taconic Farm surgery, spayed or pseudo-spayed female Sprague-Dawley CD rats (weighted 240-275 g) were obtained. These animals were fed with food and sufficient water, 3 or 4 rats/cage, in a 12/12 (light/dark) cycle. After one day, all items of investigative treatments were started to these animals. The animals were administered 7 days/week following the instruction, continuously for 6 weeks. In each investigation, one group of rats that were not treated, comparably aged, and subjected to pseudo-surgeries was used as an untreated and estrogen-sufficient control group.\nAll treatments were conducted with specified concentrations in physiological saline solution containing 1% Tween 80, so that the amount of the treatment was 0.1 mL/100 g body weight. Then 176 estradiol was dissolved in corn oil (20 μg/mL), and administered subcutaneously to rats, 0.1 mL/rat. The result was measured according to the average body weight of each group, and the animals were dosed once […].\nFive weeks after the beginning of the treatment and one week before the end of the treatment, the bone mineral density (BMD) of each rat was evaluated. The total densities and trabecular densities of the proximal ends of tibias in the anaesthetized rats were evaluated using XCT-960M (pQCT; Stratec Medizintechik, Pforzheim, Germany). The measuring procedure is shown as follows: 15 minutes before scanning, each rat was anaesthetized by intraperitoneal injection of 45 mg/kg ketamine, 8.5 mg/kg xylazine, and 1.5 mg/kg acepromazine.\nThe right hindlimb was drawn over the polycarbonate test tube with a diameter of 25 mm, and tied up on the acrylic acid scaffold, so that the anklebone was situated as a right angle and the knee joint was kept horizontally. The polycarbonate test tube was fixed on the sliding platform, so as to be orthogonal with the aperture of pQCTR. The platform was adjusted, so that the distal end of femur and the proximal end of tibia were within the scanning zone. The plane scan image was set as an image with a length of 10 mm and a linear resolution of 0.2 mm.\nSoft tissues were eliminated automatically using iterative algorithm. The density (total density) of the remaining bone was shown in a unit of mg/cm^3. In a concentric spiral separator, 55% of the external surface of the bone was peeled off. The density (i.e. trabecular density) of the remaining bone was shown in a unit of mg/cm^3. One week after BMD evaluation, the rats were sacrificed by CO2 asphyxiation. Blood was collected so as to measure cholesterol. Uteri were extracted and weighted. Total cholesterol was measured by Boehringer-Mannheim Hitachi 911 clinic analyzer utilizing a cholesterol/HP kit. A statistical comparison was carried out by way of one-way ANOVA of Dunnet's test."}, "MCF-7/ERE": {"test_system": "MCF-7/ERE", "experiment": "MCF-7/ERE anti-proliferation assay (ERE-tk-luciferase)", "assay_type": "cell-based", "settings": "Homo sapiens, MCF7; n = 2", "procedure": "Stock solutions (usually, 0.1 M) of the test compounds were prepared in DMSO, and then diluted by 10-100 folds in DMSO, so as to achieve the working solutions with a concentration of 1-10 mM. The stock solutions (in DMSO) were stored at 4° C. (0.1 M) or −20° C. (<0.1 M). MCF-7 cells were passaged twice per week using a growth medium (i.e. a D-MEM/F-12 medium). The cells were kept in a 37° C., aerated flask in an incubator filled with 5% CO2/95% humid air. One day before the treatment, a 96-well titration plate was coated with the cells in the medium, 25000 cells/well, and then cultured at 37° C., overnight.\nThe cells were transfected with 50 μL/well of 1/10 diluted adenovirus 5-ERE-tk-luciferase in the test medium (i.e. a D-MEM/F-12 medium without phenolsulfonphthalein) for 2 h. Then each well was washed once with 150μλ of the test medium. At last, the cells were divided into several replicates and treated at 37° C. for 24 h, wherein 8 wells were treated with 150μλ/well vehicle (≦0.1% v/v DMSO) or the compound diluted by ≧1000 folds with the test medium.\nA primary screen of the test compounds was conducted with a single dose of 1 μM, wherein the test compound was alone (an agonist mode) or in combination with 0.1 nM 17β estradiol (EC80: an antagonist mode). Each 96-well plate also contained a vehicle control group (0.1% v/v DMSO) and an agonist control group (0.1 or 1 nM 17β estradiol). In the agonist and/or antagonist mode, a dose-response experiment was conducted for the active compounds which were increased by logarithm of 10^−14˜10^−5 M. Based on these dose-response curves, EC50 and IC50 values were determined respectively. The final titration wells in each treatment groups contained 5 μL of 3×10^−5 M ICC-182780 (10^−6 M final concentration), as an ER antagonist control.\nAfter the treatment, the cells were lysed in 25 μL/well of 1× cell-culture lytic agent (Promega Corporation) for 15 min. Cell lysate (20 μL) was transferred into a 96-well photometer plate. The luciferase activity was measured with 100 μL/well of the substrate for luciferase (Promega Corporation) in MicroLumat LB 96P photometer (EG&G Berthold). Before adding the substrate, a background measurement was performed for each well for 1 s. After adding the substrate, the luciferase activity was measured after 1 s delay and within 10 s. The data obtained from the photometer were analyzed by JMF software (SAS Institute). Using this program, the background reading of the luciferase activity in each well was subtracted, and then the average and standard deviation were calculated for each group of treatment.\nThe above luciferase data were subjected to a logarithmic transformation, and the weights of the transformed results which were far away from the median was reduced using Huber M-estimator. The transformed and weighted data were analyzed using JMF software, so as to conduct a one-way ANOVA (D test). The results of the compound treatment groups were compared with that of a vehicle control group in the agonist mode, or with that of a positive agonist control group in the antagonist mode (0.1 nM 17β-estradiol). […] In addition, EC50 and/or IC50 values were determined from a nonlinear dose-response curve using JMF software."}, "[1]": {"test_system": "DU-145 prostate cancer cells", "experiment": "Effect on the proliferation of prostate cancer cells", "assay_type": "cell-based", "settings": "Homo sapiens, DU-145, 120 h; 5 days, Cyquant kit; n = 2", "procedure": "DU-145 prostate cancer cells were plated onto a 96-well dish, in a density of 2×10^3 cells/well in a MEM Eagles medium without phenol red. Such a medium comprises Earles' balanced salt, 1% antibiotic-antifungal agent, 2 mM glutamine, 0.1 mM nonessential amino acids, 1 mM sodium pyruvate and 10% carbon stripped FCS. The next day, the compound and vehicle (0.2% DMSO) were added, and the medium was refreshed every 48 hours. The cultivation was stopped 5 days later. Proliferation was analyzed using the above Cyquant kit."}}}
{"compound": "CCN(CC)CCOc1ccc(C(=O)c2oc3cc4c(cc3c2-c2ccc(O)cc2)CCCO4)cc1", "note": "[Example 56, 2-[4-(diethylaminoethoxy)benzoyl]-3-(4-hydroxyphenyl)-6,7-dihydrogen-5H-furo[3,2-g]chromene]", "values": [{"measurement": "percentage of weight gain of uteri", "setting": "uteri", "value": 15.1, "unit": "%"}, {"measurement": "IC50", "setting": "MCF-7/ERE", "value": 13.5, "unit": "µM"}, {"measurement": "IC50", "setting": "[1]", "value": 17.1, "unit": "µM"}]}
{"compound": "O=C(c1ccc(OCC(=O)N2CCOCC2)cc1)c1oc2cc3c(cc2c1-c1ccc(O)cc1)CCCO3", "note": "[2-[4-(morpholine-2-oxo-ethoxy)benzoyl]-3-(4-hydroxyphenyl)-6,7-dihydrogen-5H-furo[3,2-g]chromene]", "values": [{"measurement": "percentage of weight gain of uteri", "setting": "uteri", "value": 6.2, "unit": "%"}, {"measurement": "IC50", "setting": "MCF-7/ERE", "value": 4.9, "unit": "µM"}, {"measurement": "IC50", "setting": "[1]", "value": 23.7, "unit": "µM"}]}
{"compound": "O=C(c1ccc(OCC(=O)N2CCCCC2)cc1)c1oc2cc3c(cc2c1-c1ccc(O)cc1)CCCO3", "note": "[Example 60, 2-[4-(piperidine-2-oxo-ethoxy)benzoyl]-3-(4-hydroxyphenyl)-6,7-dihydrogen-5H-furo[3,2-g]chromene]", "values": [{"measurement": "percentage of weight gain of uteri", "setting": "uteri", "value": 12.4, "unit": "%"}, {"measurement": "IC50", "setting": "MCF-7/ERE", "value": 5.6, "unit": "µM"}, {"measurement": "IC50", "setting": "[1]", "value": 14.5, "unit": "µM"}]}
{"compound": "CCN(CC)C(=O)COc1ccc(C(=O)c2oc3cc4c(cc3c2-c2ccc(O)cc2)CCCO4)cc1", "note": "[Example 62, 2-[4-(diethylamino-2-oxo-ethoxy)benzoyl]-3-(4-hydroxyphenyl)-6,7-dihydrogen-5H-furo[3,2-g]chromene]", "values": [{"measurement": "percentage of weight gain of uteri", "setting": "uteri", "value": 23.9, "unit": "%"}, {"measurement": "IC50", "setting": "MCF-7/ERE", "value": 42.3, "unit": "µM"}, {"measurement": "IC50", "setting": "[1]", "value": 35.2, "unit": "µM"}]}
{"compound": "CN(C)C(=O)COc1ccc(C(=O)c2oc3cc4c(cc3c2-c2ccc(O)cc2)CCCO4)cc1", "note": "[Example 64, 2-[4-(dimethylamino-2-oxo-ethoxy)benzoyl]-3-(4-hydroxyphenyl)-6,7-dihydrogen-5H-furo[3,2-g]chromene]", "values": [{"measurement": "percentage of weight gain of uteri", "setting": "uteri", "value": 35.5, "unit": "%"}, {"measurement": "IC50", "setting": "MCF-7/ERE", "value": 21.8, "unit": "µM"}, {"measurement": "IC50", "setting": "[1]", "value": 8.5, "unit": "µM"}]}
{"compound": "CN(C)CCOc1ccc(C(=O)c2oc3cc4c(cc3c2-c2ccc(O)cc2)CCCO4)cc1", "note": "[Example 58, 2-[4-(dimethylaminoethoxy)benzoyl]-3-(4-hydroxyphenyl)-6,7-dihydrogen-5H-furo[3,2-g]chromene]", "values": [{"measurement": "percentage of weight gain of uteri", "setting": "uteri", "value": 3.2, "unit": "%"}, {"measurement": "IC50", "setting": "MCF-7/ERE", "value": 22.9, "unit": "µM"}, {"measurement": "IC50", "setting": "[1]", "value": 43.6, "unit": "µM"}]}
